# How the values were obtained:
# [1] = molecular target: T1, Neuropeptide Y receptor type 1 (Homo sapiens, UniProt P25929); test: Inhibition of I-PYY binding to Nueopeptide Y1 receptor expressed in human neuroblastoma SK-N-MC cells; assay type: cell-based
# T1 sequence (P25929 whole entry): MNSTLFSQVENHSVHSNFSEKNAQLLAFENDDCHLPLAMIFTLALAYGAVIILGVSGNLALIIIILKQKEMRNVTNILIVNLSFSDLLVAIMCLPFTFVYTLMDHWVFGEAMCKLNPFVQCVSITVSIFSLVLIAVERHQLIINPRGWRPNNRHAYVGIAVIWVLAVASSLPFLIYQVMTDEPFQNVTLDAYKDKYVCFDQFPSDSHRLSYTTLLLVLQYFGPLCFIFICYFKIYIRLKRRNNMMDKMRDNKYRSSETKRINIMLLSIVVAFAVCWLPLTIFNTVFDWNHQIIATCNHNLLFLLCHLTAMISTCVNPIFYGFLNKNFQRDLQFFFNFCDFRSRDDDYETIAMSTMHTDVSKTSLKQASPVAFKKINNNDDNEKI
# [2] = molecular target: T1, Neuropeptide Y receptor type 1; test: Binding affinity against Neuropeptide Y receptor type 1 using I-PYY as a radioligand in human neuroblastoma SK-N-MC cells; assay type: cell-based
IC50 [1] [nM],IC50 [2] [nM],Compound
12.8,,COC(=O)C1=C(C)N=C(C)/C(=C(/O)OC)C1c1cccc(N/C(S)=N/CCCN2CCC(c3cccc(OC)c3)CC2)c1 (stereo not drawn)
132,,COC(=O)C1=C(C)N=C(C)/C(=C(/O)OC)C1c1cccc(N/C(S)=N/CCCN2CCN(C3CCCCC3)CC2)c1 (stereo not drawn)
231,,COC(=O)C1=C(C)N=C(C)/C(=C(/O)OC)N1c1cccc(N/C(=N/CCCN2CCC(C(C)(C)C)CC2)NC#N)c1
,4.2,COC(=O)C1=C(C)N=C(C)/C(=C(/O)OC)C1c1cccc(NC(=O)NCCCN2CCC(c3cccc(OC)c3)CC2)c1 (stereo not drawn)
> 1000,,COC(=O)C1=C(C)N=C(C)/C(=C(/O)OC)N1c1cccc(N/C(S)=N/CCCN2CCC(C(C)(C)C)CC2)c1
434,,COC(=O)C1=C(C)N=C(C)/C(=C(/O)OC)N1c1cccc(NC(=O)NCCCN2CCN(C3CCCCC3)CC2)c1

# Second part, the compound before the results:
Compound,IC50 [1] [nM],IC50 [2] [nM]
COC(=O)C1=C(C)N=C(C)/C(=C(/O)OC)N1c1cccc(N/C(=N/CCCN2CCC(c3ccccc3)CC2)NC#N)c1,268,
COC(=O)C1=C(C)N=C(C)/C(=C(/O)OC)N1c1cccc(N/C(S)=N/CCCN2CCC(c3cccc(OC)c3)CC2)c1,945,
COC(=O)C1=C(C)N=C(C)/C(=C(/O)OC)N1c1cccc(NC(=O)NCCCN2CCC(c3cccc(OC)c3)CC2)c1,554,
COC(=O)C1=C(C)N=C(C)/C(=C(/O)OC)C1c1cccc(N/C(=N/CCCN2CCC(C(C)(C)C)CC2)NC#N)c1 (stereo not drawn),< 1,
COC(=O)C1=C(C)N=C(C)/C(=C(/O)OC)N1c1cccc(N/C(S)=N/CCCN2CCN(C3CCCCC3)CC2)c1,> 1000,
COC(=O)C1=C(C)N=C(C)/C(=C(/O)OC)C1c1cccc(N/C(=N/CCCN2CCC(c3ccccc3)CC2)NC#N)c1 (stereo not drawn),5.4,
COC(=O)C1=C(C)N=C(C)/C(=C(/O)OC)C1c1cccc(NC(=O)NCCCN2CCN(C3CCCCC3)CC2)c1 (stereo not drawn),176,

# — ChEMBL document CHEMBL1135029, “Novel dihydropyrazine analogues as NPY antagonists” (Bioorg Med Chem Lett, 2002)
